Results as given in US20050074810A1, “Method for non-invasilvely determining the relative levels of two biological substances” (priority 2001, published 2005).
Read-outs that look alike come from different tables or passages of the source.

Assays:
[1] = subdermal lactate 1.74 mM, ammonium 1.56 mM
Procedure: Experiments were performed in specially-designed iontophoresis diffusion cells (Laboratory Glass Apparatus, Berkeley, Calif., USA) as represented in FIG. 7.
The anodal and cathodal chambers contacted the outer surface of the skin and contained the receptor (collection) media, respectively, 80 mM Tris/TrisHCl and 25 mM Tris+34 mM Mops (both buffered to pH 7.4).
Dermatomed pig-ear skin was clamped between the two halves of the iontophoresis cell and each chamber was filled with the appropriate solution.
The sub-dermal chamber was filled with the “donor solution which was perfused continuously at 2-3 mL/hour by means of a peristaltic pump.
A current of 0.4 mA (0.5 mA/cm^2) was passed for a total of 5 hours between the Ag/AgCl electrodes which were inserted into the anodal and cathodal chambers.
Every hour, the entire anode and cathode solutions were withdrawn and the chambers were refilled with fresh buffer.

[2] = in vivo, 4 mA for 5 minutes, 4.5 cm^2, lithium nitrate electrolyte; cited from earlier work

Row | SMILES | Deduced transport number (×100) ([1]; 3 h) | K for analyte/internal standard couple, internal standard Na^+ ([1]; 3 h) | Deduced transport number (×100) ([1]; 5 h) | K for analyte/internal standard couple, internal standard Na^+ ([1]; 5 h) | Extracted flux ratio (×10^3) relative to K^+ ([1]; 3 h) | Extracted flux ratio (×10^3) relative to Na^+ ([1]; 3 h) | Extracted flux ratio (×10^3) relative to K^+ ([1]; 5 h) | Extracted flux ratio (×10^3) relative to Na^+ ([1]; 5 h) | Concentration in the cathode chamber after current passage [2]
1 | N [Ammonium, ammonium] | 1.36 ± 0.09 ×100 | 1.71 ± 0.09 | 1.44 ± 0.03 ×100 | 1.71 ± 0.01 |  |  |  |  | 
2 | CC(O)C(=O)O (stereo not shown) [Lactate, lactate] | 0.59 ± 0.08 ×100 | 0.66 ± 0.01 | 0.56 ± 0.07 ×100 | 0.60 ± 0.08 | 149 ± 3.3 ×10^3 | 8.7 ± 0.1 ×10^3 | 138 ± 15 ×10^3 | 7.8 ± 1.1 ×10^3 | 
3 | [K+] [K^+, potassium] |  |  |  |  |  |  |  |  | about 14 μEq/L
